Test: Ratio of ED50 for cytotoxicity against B16 melanoma to paclitaxel
Details: mouse

Structure (SMILES): CC(=O)O[C@H]1C(=O)[C@@]2(C)[C@H]([C@H](OC(=O)c3cccc(O)c3)[C@]3(O)C[C@H](OC(=O)[C@H](O)[C@@H](NC(=O)c4ccccc4)c4ccccc4)C(C)=C1C3(C)C)[C@]1(OC(C)=O)CO[C@@H]1C[C@@H]2O
- Ratio: > 20

— ChEMBL document CHEMBL1129043, “Preparation of phenolic paclitaxel metabolites” (J Med Chem, 1996)
